Assay results as given in patent publication US20260273028A1, “PEROXIDASE COMPOSITIONS CONTAINING IMPROVED ENHANCING AGENTS” (FLEN HEALTH PHARMA NV, priority 2022, published 2026).

Columns and labels:
IL-6 = assay: Direct neutralization of secreted IL-6 in cell culture supernatants, ELISA; format: biochemical; conditions: isoleucine 0.05%; 3 h
Method: First, the effect on the secretion of these mediators by macrophages was evaluated. Secondly, the direct neutralization of already secreted mediators was evaluated. Both were measured by the state-of-the-art ELISA technique. Secondly, the direct neutralization of secreted pro-inflammatory mediator representatives IL-6, TNFa and MMP9 was measured in parallel. In brief, cell culture supernatants were collected after 48 h of macrophage differentiation and were centrifuged at 150 g for 5 min to remove cell debris. […] Treated supernatants were kept frozen until being processed for ELISA. IL-6, TNFa and MMP9 ELISA kits were purchased from BioTechne and the experiment was performed according to manufacturer's instructions. Briefly, 96-well plates were coated with capture antibodies overnight at room temperature. […] After several washing steps, the corresponding detection antibody, which is coupled to biotin, was incubated for 2 h. […] The reaction was stopped by the addition of sulphuric acid and absorbance at 450 nm was read with a plate reader. Absorbance is proportional to the concentration of analyte present in the medium, which was calculated based on a standard curve realized with recombinant IL-6, TNFa and MMP9.

GOX = GOX (Aspergillus niger, UniProt P13006); assay: Glucose oxidase (GOX) activity, spectrophotometric assay; format: biochemical; conditions: reference = no potentiator candidate
Method: The natural enzyme GOX is an oxidoreductase that catalyses the oxidation of glucose to gluconic acid and hydrogen peroxide (H2O2) in the presence of water and air. To measure the enzymatic activity of GOX, a standard spectrophotometric assay is performed. In brief, a second oxidoreductase enzyme, peroxidase, and a chromogenic oxygen acceptor, o-dianisidine, are added to the former reaction mix (GOX+glucose+water+air) so that the formation of a coloured compound is achieved that can in turn be measured by spectrophotometry. GOX was tested in 4 different concentrations, i.e., 100, 50, 10 and 1 mg/ml. Each reaction mixture was tested in duplo. In the event GOX activity was evaluated in the presence of a potentiator candidate (=a molecule that might be able to augment the enzymatic activity of GOX), the latter was added in a low and high concentration ranging from 100 to 0.1 mg/ml. The blank consisted of the reaction mix in which the enzymes were absent. After mixing all reaction elements, absorbance was immediately measured with a plate reader (Spectramax ID3, Molecular Devices) every minute for 5 minutes at 35° C. For each combination evaluated, this test was repeated at least 2 times. Results were further analysed in MS Excel and expressed as U/g. Mean blank-corrected data±SD were plotted. Statistical significance compared to the combination without potentiator candidate (reference) was calculated using students' t-tests. Significance is achieved when the obtained p-value is lower than 0,05. Significance levels were defined as p<0.05=*; p<0.01=** and p<0.001=***.

Sequence of GOX (P13006 17-605): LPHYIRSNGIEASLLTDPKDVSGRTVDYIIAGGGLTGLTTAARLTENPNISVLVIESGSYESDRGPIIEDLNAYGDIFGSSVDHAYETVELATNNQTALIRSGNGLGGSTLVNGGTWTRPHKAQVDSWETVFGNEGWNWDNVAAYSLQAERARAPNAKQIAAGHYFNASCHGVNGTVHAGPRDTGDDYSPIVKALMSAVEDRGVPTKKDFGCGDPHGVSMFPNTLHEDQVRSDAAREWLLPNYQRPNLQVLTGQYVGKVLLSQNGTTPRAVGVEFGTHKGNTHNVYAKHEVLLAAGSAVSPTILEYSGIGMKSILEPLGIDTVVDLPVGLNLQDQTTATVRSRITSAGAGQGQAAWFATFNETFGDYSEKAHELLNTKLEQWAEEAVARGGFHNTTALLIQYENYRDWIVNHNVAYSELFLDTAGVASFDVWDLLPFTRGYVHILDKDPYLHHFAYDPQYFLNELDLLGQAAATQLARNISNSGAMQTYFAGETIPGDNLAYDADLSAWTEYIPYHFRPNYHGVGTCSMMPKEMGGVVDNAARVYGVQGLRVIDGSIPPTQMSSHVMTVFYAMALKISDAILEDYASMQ

Structure (SMILES) | additional decrease of already secreted IL-6 (direct neutralization) vs GOX+LPO (1:1) alone (IL-6) [%] | GOX activity compared to reference (GOX; enhancer 0.1 mg/ml) | GOX activity compared to reference (GOX; enhancer 100 mg/ml)
CC[C@H](C)[C@H](N)C(=O)O [Isoleucine, isoleucine] | 29.4 |  | 
O=C(O)[C@@H]1CCCN1 [Proline, proline] |  | significant increase | significant increase
